Results taken from PMC6453916, “Radical-mediated C-S bond cleavage in C2 sulfonate degradation by anaerobic bacteria” (Nature Communications, 2019).
Each block holds one molecule with its values, some of them ahead of it.

Legend:
[1] = target: T1, TauF (BwTauF, sulfoacetaldehyde reductase) (Bilophila wadsworthia, UniProt E5Y946); assay: NADH oxidation at […] nm; type: biochemical; settings: 5 mM sulfoacetaldehyde (introduced as bisulfite adduct), 0.5 mM NADH, 0.1 M Tris pH 7.5, 0.1 M KCl
T1 construct: gene sarD; codon-optimised, His6-TEV (HT) vector, E. coli
T1 sequence (E5Y946 1-387): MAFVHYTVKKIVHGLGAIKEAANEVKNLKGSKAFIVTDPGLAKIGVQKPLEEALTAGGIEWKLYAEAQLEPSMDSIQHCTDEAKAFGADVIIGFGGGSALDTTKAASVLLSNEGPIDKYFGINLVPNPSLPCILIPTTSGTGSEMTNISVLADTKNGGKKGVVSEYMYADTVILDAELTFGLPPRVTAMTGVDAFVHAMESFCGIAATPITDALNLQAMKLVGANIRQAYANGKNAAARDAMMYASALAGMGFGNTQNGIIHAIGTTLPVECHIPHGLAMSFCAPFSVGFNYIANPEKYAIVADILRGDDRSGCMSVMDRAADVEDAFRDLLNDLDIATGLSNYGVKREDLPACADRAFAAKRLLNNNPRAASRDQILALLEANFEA

[2] = target: T2, DpIseK (substrate-binding subunit of the IseG-associated TRAP transporter) (Desulfovibrio piger, UniProt A0A1K1LFE7); assay: isothermal titration calorimetry
T2 construct: gene DESPIGER_1592; soluble periplasmic subunit, codon-optimised, expressed as His6-MBP-TEV fusion; MBP tag cleaved and removed before ITC

[3] = target: IseG (−23 a.a.), isethionate sulfo-lyase from Desulfovibrio vulgaris Hildenborough with an N-terminal 23-a.a. truncation (Desulfovibrio vulgaris Hildenborough) (UniProt Q727N1); assay: SEC; 2.5 mg/mL IseG (−23 a.a.), 2 mL on a Superdex 200 column (300 mL), buffer D (10 mM HEPES/KOH pH 7.4, 250 mM KCl, 10 mM BME), 3 mL/min; mass from elution volume against molecular weight markers (observed 196 kDa, monomer calculated 91.3 kDa)
purified protein = substrate: O=S(=O)(O)CCO; assay: purified protein; type: biochemical, Nitratidesulfovibrio vulgaris; settings: IseG activated by IseH, SAM and Ti(III) citrate; anaerobic, room temperature, 250 nM IseG

T2 sequence (A0A1K1LFE7 24-332): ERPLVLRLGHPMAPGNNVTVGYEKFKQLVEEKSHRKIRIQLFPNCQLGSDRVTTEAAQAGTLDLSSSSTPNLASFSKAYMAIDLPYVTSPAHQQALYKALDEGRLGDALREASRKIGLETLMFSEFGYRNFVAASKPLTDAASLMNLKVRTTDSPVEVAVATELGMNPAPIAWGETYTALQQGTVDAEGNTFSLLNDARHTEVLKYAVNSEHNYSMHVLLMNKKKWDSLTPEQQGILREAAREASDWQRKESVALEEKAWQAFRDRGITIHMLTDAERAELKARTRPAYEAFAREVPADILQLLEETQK

Molecule: NC(=O)C1=CN([C@@H]2O[C@H](COP(=O)(O)OP(=O)(O)OC[C@H]3O[C@@H](n4cnc5c(N)ncnc54)[C@H](O)[C@@H]3O)[C@@H](O)[C@H]2O)C=CC1 [NADH]
NADH oxidation at 340 nm [1]: demonstrates that BwTauF is a sulfoacetaldehyde reductase

Kd [2]: 500 nM
Molecule: O=S(=O)(O)CCO [isethionate]

Molecule: O=CCS(=O)(=O)O [sulfoacetaldehyde]
NADH oxidation at 340 nm [1]: TauF, catalyzed NADH-dependent reduction of sulfoacetaldehyde

stoichiometry N [3]: 2
Molecule: IseG (−23 a.a.), isethionate sulfo-lyase from Desulfovibrio vulgaris Hildenborough with an N-terminal 23-a.a. truncation (from UniProt Q727N1 24-828) (enzyme)

B1: IseG (GUF, isethionate sulfo-lyase) (Nitratidesulfovibrio vulgaris str. Hildenborough) (protein)
chain: MQCCNQLSPHEQRLQDKIEGKVDRYRATHERVFTILESFDNTRPRIDVERAKYFTESMKATEGQPLPLRWAKALMHIAENMTVYIDDHQLICGRAGYQGRYGVLYPELDGDFLGTAIEDLPNRAESPFAITPEDARVVVEEIAPFWKGKTYHEALNLALPADVHKLTYDDPQGLMSRFIVNETSSFRSSIQWVHDYEKVLKRGFRSIKEEALEKIAALDPMSPCDNVEKRPFLEAIVIVCDAIILWAKRHAKLAAELAAKETDPTRKRELETMAEICAWVPENPARTFHEAVQAQWFTQVFSRIEQKTGTIVSNGRMDQYFWPFYEKDLAEGRITEDSALELLECMWVGMAQYVDLYISPTGGAFNEGYAHWEAVTIGGQTPEGRDATNDLTYLFLKSKREFPLHYPDLAARIHSRSPERYLWEVAETIKDGSGFPKLINDEEVVPLYVSKGATFAEALDYAVSGCTEARMPNRDTYTSGGAYINFAAALEMVLYNGKMLKYGDTDLGAHTGDPCEFKTWEEFWNAYVTQHHLFLKTAFVQQHIINNLRARHFAQPMGSSLHDLCMKHCLDLHTPQIPEGINLGYFEYMGFGTVVDSLSAIKKLVFEDKKLTMGELIEALKCNFEGKEDIQQLLKSAPCYGNNDDYADSIARDIDALSVKYGRRYSPELGMHNDVRYVPFTSHVPFGRVVSATPNGRKAWSALSDGSSASHGADVNGPTAILQSNFNSKNYGMRDRAARMLNIKFTPKCVEGEEGSQKLVSFIRTFCDLKLWHVQFNVINKETLLAAQRDPEKYRNLIVRIAGYSAYFVDLSPDLQNDLIARTGHDVM
notes: pET-28a(+)-His6-IseG, codon-optimised, full length, His tag kept, E. coli BL21(DE3); dimer; glycyl radical installed by IseH/SAM/Ti(III) citrate
Km (purified protein): 44.8 ± 3.5 mM
kcat (purified protein): 91.6 ± 3.3 s⁻¹
